From patent US20220402916A1, “SMALL MOLECULE INHIBITORS OF KRAS G12C MUTANT” (Merck Sharp & Dohme Corp., priority 2019, published 2022)
Read-outs that look alike come from different tables or passages of the source.

What was measured:
NCI-H358 cells = assay: Cellular phospho-ERK assay; format: cell-based; details: NCI-H358 cells, 2 hour incubation, ratio of p-Erk vs total Erk, read-out: IC50
Procedure: NCI-H358 cells (ATCC® CRL-5807™) were cultured in T150 flask in growth medium (RPMI medium 1640-GlutaMAX™-1 (ThermoFisher Scientific 61870) containing 10% fetal bovine serum (ThermoFisher Scientific 10091148)). The cells were harvested in growth medium after TrypLE (ThermoFisher scientific 12604021) digestion and were seeded in 384-well collagen coated cell culture plate (Corning 356702) at a density of 15,000 cells/well, and incubated at 37° C., 5% CO2 overnight. The compound dose-response titrations were prepared and appropriate amounts of compounds were dispensed in 384-well intermediate plate using Echo 550 liquid handler. RPMI medium 1640-GlutaMAX™-I were added to the intermediate plate and transferred to 384-well cell culture plate, which was incubated at 37° C., 5% CO2 for 2 hours. After removal of medium from the plate, cells were lysed in lysis buffer from Alpha SureFire® Ultra™ Multiplex p-Erk and total Erk assay kit (PerkinElmer MPSU-PTERK) containing Halt™ Protease and Phosphotase inhibitor cocktail (ThermoFisher Scientific 78446) at room temperature with constant shaking at 300 rpm for 30 minutes. The cell lysates were then transferred to OptiPlate-384 plate (PerkinElmer 6005620) and the phosphorylation of Erk and total Erk levels were detected by Alpha SureFire Ultra Multiplex p-Erk kit (PerkinElmer MPSU-PTERK) following the manufacturer's protocol. Assay plates were read on an EnVision Multimode Plate Reader (PerkinElmer) and the ratio of p-Erk vs total Erk in each well was used as the final readout. Dose response curves were analyzed using a 4-parameter logistic model to calculate IC50 values using spotfire software.

[1] = molecular target: T1, Biotinylated KRAS G12C protein (Homo sapiens, UniProt P01116, C118S/C51S/C80L/G12C); assay: SOS-catalyzed nucleotide exchange assay; format: biochemical; details: apparent potency; preincubation time of 60 minutes prior to addition of SOS
T1 construct: 183 amino acids; biotin on K10
T1 sequence (P01116 with tags, fused parts or gaps isoform P01116-2 G12C/C51S/C80L/C118S): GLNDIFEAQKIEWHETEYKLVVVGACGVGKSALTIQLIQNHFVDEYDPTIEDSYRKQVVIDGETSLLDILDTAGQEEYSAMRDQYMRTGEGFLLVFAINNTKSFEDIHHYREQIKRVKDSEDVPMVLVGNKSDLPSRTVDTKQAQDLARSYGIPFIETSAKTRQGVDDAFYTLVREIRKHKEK

Row | Structure (SMILES) | IC50 (NCI-H358 cells; Homo sapiens, NCI-H358, 2 h) | IC50 [1] | IC50 (NCI-H358 cells)
1 | C=CC(=O)N1CCN(c2cc(C(=O)NC3(CC)CCNC3)nc3c2CCN(c2cccc4cccc(C)c24)C3)C[C@@H]1CC#N (mixture of isomers) [Compound 101, 4-((S)-4-acryloyl-3-(cyanomethyl)piperazin-1-yl)-N-((R)-3-ethylpyrrolidin-3-yl)-7-(8-methylnaphthalen-1-yl)-5,6,7,8-tetrahydro-1,7-naphthyridine-2-carboxamide, as a mixture with 4-((S)-4-acryloyl-3-(cyanomethyl)piperazin-1-yl)-N-((S)-3-ethylpyrrolidin-3-yl)-7-(8-methylnaphthalen-1-yl)-5,6,7,8-tetrahydro-1,7-naphthyridine-2-carboxamide] | 1.8 µM | 4.5 nM | –
2 | C=CC(=O)N1CCN(c2cc(C(=O)NC3(C)CCCNC3)nc3c2CCN(c2cccc4cccc(C)c24)C3)C[C@@H]1CC#N (mixture of isomers) [Compound 102, 4-((S)-4-acryloyl-3-(cyanomethyl)piperazin-1-yl)-7-(8-methylnaphthalen-1-yl)-N-((R)-3-methylpiperidin-3-yl)-5,6,7,8-tetrahydro-1,7-naphthyridine-2-carboxamide, as a mixture with 4-((S)-4-acryloyl-3-(cyanomethyl)piperazin-1-yl)-7-(8-methylnaphthalen-1-yl)-N-((S)-3-methylpiperidin-3-yl)-5,6,7,8-tetrahydro-1,7-naphthyridine-2-carboxamide] | 0.809 µM | 5.4 nM | –
3 | C=CC(=O)N1CCN(c2cc(C(=O)NCCC3CCCCN3)nc3c2CCN(c2cccc4cccc(C)c24)C3)C[C@@H]1CC#N (mixture of isomers) [Compound 105, 4-((S)-4-acryloyl-3-(cyanomethyl)piperazin-1-yl)-7-(8-methylnaphthalen-1-yl)-N-(2-((R)-piperidin-2-yl)ethyl)-5,6,7,8-tetrahydro-1,7-naphthyridine-2-carboxamide, as a mixture with 4-((S)-4-acryloyl-3-(cyanomethyl)piperazin-1-yl)-7-(8-methylnaphthalen-1-yl)-N-(2-((S)-piperidin-2-yl)ethyl)-5,6,7,8-tetrahydro-1,7-naphthyridine-2-carboxamide] | 4.89 µM | 17 nM | –
4 | C=CC(=O)N1CCN(c2cc(C(=O)NCC3CCCNC3)nc3c2CCN(c2cccc4cccc(C)c24)C3)C[C@@H]1CC#N (mixture of isomers) [Compound 106, 4-((S)-4-acryloyl-3-(cyanomethyl)piperazin-1-yl)-7-(8-methylnaphthalen-1-yl)-N-(((R)-piperidin-3-yl)methyl)-5,6,7,8-tetrahydro-1,7-naphthyridine-2-carboxamide, as a mixture with 4-((S)-4-acryloyl-3-(cyanomethyl)piperazin-1-yl)-7-(8-methylnaphthalen-1-yl)-N-(((S)-piperidin-3-yl)methyl)-5,6,7,8-tetrahydro-1,7-naphthyridine-2-carboxamide] | 5.24 µM | 33 nM | –
5 | C=CC(=O)N1CCN(c2cc(C(=O)NC(C)CN3CCC(F)(F)C3)nc3c2CCN(c2cccc4cccc(C)c24)C3)C[C@@H]1CC#N (single isomer, unassigned) [Compound 71, 4-((S)-4-acryloyl-3-(cyanomethyl)piperazin-1-yl)-N—((R or S)-1-(3,3-difluoropyrrolidin-1-yl)propan-2-yl)-7-(8-methylnaphthalen-1-yl)-5,6,7,8-tetrahydro-1,7-naphthyridine-2-carboxamide] | – | 32 nM | 5.55 µM
6 | C=CC(=O)N1CCN(c2cc(C(=O)NC(C)CN3CCC(F)(F)C3)nc3c2CCN(c2cccc4cccc(C)c24)C3)C[C@@H]1CC#N (single isomer, unassigned) [Compound 72, 4-((S)-4-acryloyl-3-(cyanomethyl)piperazin-1-yl)-N—((S or R)-1-(3,3-difluoropyrrolidin-1-yl)propan-2-yl)-7-(8-methylnaphthalen-1-yl)-5,6,7,8-tetrahydro-1,7-naphthyridine-2-carboxamide] | – | 529 nM | 25.4 µM
7 | C=CC(=O)N1CCN(c2cc(C(=O)NC(C)CN3CCC(C)(O)C3)nc3c2CCN(c2cccc4cccc(C)c24)C3)C[C@@H]1CC#N (single isomer, unassigned) [Compound 73, 4-((S)-4-acryloyl-3-(cyanomethyl)piperazin-1-yl)-N—((R or S)-1-((R or S)-3-hydroxy-3-methylpyrrolidin-1-yl)propan-2-yl)-7-(8-methylnaphthalen-1-yl)-5,6,7,8-tetrahydro-1,7-naphthyridine-2-carboxamide] | – | 9.7 nM | 0.257 µM
8 | C=CC(=O)N1CCN(c2cc(C(=O)NC(C)CN3CCC(C)(O)C3)nc3c2CCN(c2cccc4cccc(C)c24)C3)C[C@@H]1CC#N (single isomer, unassigned) [Compound 74, 4-((S)-4-acryloyl-3-(cyanomethyl)piperazin-1-yl)-N-((S or R)-1-((R or S)-3-hydroxy-3-methylpyrrolidin-1-yl)propan-2-yl)-7-(8-methylnaphthalen-1-yl)-5,6,7,8-tetrahydro-1,7-naphthyridine-2-carboxamide] | – | 5.4 nM | 0.045 µM
9 | C=CC(=O)N1CCN(c2cc(C(=O)NC(C)CN3CCC(C)(O)C3)nc3c2CCN(c2cccc4cccc(C)c24)C3)C[C@@H]1CC#N (single isomer, unassigned) [Compound 75, 4-((S)-4-acryloyl-3-(cyanomethyl)piperazin-1-yl)-N-((R or S)-1-((S or R)-3-hydroxy-3-methylpyrrolidin-1-yl)propan-2-yl)-7-(8-methylnaphthalen-1-yl)-5,6,7,8-tetrahydro-1,7-naphthyridine-2-carboxamide] | – | 7.2 nM | 0.068 µM
10 | C=CC(=O)N1CCN(c2cc(C(=O)NC(C)CN3CCC(C)(O)C3)nc3c2CCN(c2cccc4cccc(C)c24)C3)C[C@@H]1CC#N (single isomer, unassigned) [Compound 76, 4-((S)-4-acryloyl-3-(cyanomethyl)piperazin-1-yl)-N-((S or R)-1-((S or R)-3-hydroxy-3-methylpyrrolidin-1-yl)propan-2-yl)-7-(8-methylnaphthalen-1-yl)-5,6,7,8-tetrahydro-1,7-naphthyridine-2-carboxamide] | – | 6.2 nM | 0.207 µM
11 | C=C(F)C(=O)N1CCN(c2cc(C(=O)NC(C)CN3CCC(C)(O)C3)nc3c2CCN(c2cccc4cccc(C)c24)C3)C[C@@H]1CC#N (single isomer, unassigned) [Compound 77, 4-((S)-3-(cyanomethyl)-4-(2-fluoroacryloyl)piperazin-1-yl)-N—((R or S)-1-((S or R)-3-hydroxy-3-methylpyrrolidin-1-yl)propan-2-yl)-7-(8-methylnaphthalen-1-yl)-5,6,7,8-tetrahydro-1,7-naphthyridine-2-carboxamide] | 0.611 µM | 5 nM | –
12 | C=CC(=O)N1CCN(c2cc(C(=O)N[C@H](C)CN(C)C)nc3c2CCN(c2cccc4cccc(C)c24)C3)CC1 [Compound 12, (R)-4-(4-acryloylpiperazin-1-yl)-N-(1-(dimethylamino)propan-2-yl)-7-(8-methylnaphthalen-1-yl)-5,6,7,8-tetrahydro-1,7-naphthyridine-2-carboxamide] | 5.94 µM | 66 nM | –
13 | C=CC(=O)N1CCN(c2cc(C(=O)NC3(CN4CCCCC4)CC3)nc3c2CCN(c2cccc4cccc(C)c24)C3)CC1 [Compound 25, 4-(4-acryloylpiperazin-1-yl)-7-(8-methylnaphthalen-1-yl)-N-(1-(piperidin-1-ylmethyl)cyclopropyl)-5,6,7,8-tetrahydro-1,7-naphthyridine-2-carboxamide] | 5.64 µM | 74 nM | –
14 | C=CC(=O)N1CCN(c2cc(C(=O)NCCN(C)C)nc3c2CCN(c2cccc4ccccc24)C3)C[C@@H]1CC#N [Compound 60, (S)-4-(4-acryloyl-3-(cyanomethyl)piperazin-1-yl)-N-(2-(dimethylamino)ethyl)-7-(naphthalen-1-yl)-5,6,7,8-tetrahydro-1,7-naphthyridine-2-carboxamide] | 0.375 µM | 8.8 nM | –
15 | C=CC(=O)N1CCN(c2cc(C(=O)N[C@H](C)CN)nc3c2CCN(c2cccc4ccccc24)C3)C[C@@H]1CC#N [Compound 61, 4-((S)-4-acryloyl-3-(cyanomethyl)piperazin-1-yl)-N—((R)-1-aminopropan-2-yl)-7-(naphthalen-1-yl)-5,6,7,8-tetrahydro-1,7-naphthyridine-2-carboxamide] | 1.24 µM | 13 nM | –
16 | C=CC(=O)N1CCN(c2cc(C(=O)N[C@@H](C)CN)nc3c2CCN(c2cccc4ccccc24)C3)C[C@@H]1CC#N [Compound 62, 4-((S)-4-acryloyl-3-(cyanomethyl)piperazin-1-yl)-N-((S)-1-aminopropan-2-yl)-7-(naphthalen-1-yl)-5,6,7,8-tetrahydro-1,7-naphthyridine-2-carboxamide] | 2.41 µM | 51 nM | –
